Experimental data reported in patent US6339042B1, “Herbicidal N-cyclohexadienyl heteroaryloxyacetamides” (American Cyanamid Co., priority 1999, dated 2002).

Experiments:
Conditions in all cases: three weeks after treatment
[1] = test system: Zea mays; experiment: Pre-emergence herbicidal evaluation, ZEAMX; type: in vivo
From the text: (§1) The treated pots are then placed on greenhouse benches, watered and cared for in accordance with conventional greenhouse procedures.

[2] = test system: Oryza sativum; experiment: Post-emergence herbicidal evaluation, ORYSA
[3] = test system: Amaranthus tuberculatus; experiment: Pre-emergence herbicidal evaluation, AMATA; type: in vivo
From the text: as §1

[4] = test system: Apera spica venti; experiment: Pre-emergence herbicidal evaluation, APESV; type: in vivo
From the text: as §1

[5] = test system: Setaria viridis; experiment: Post-emergence herbicidal evaluation, SETVI
Description: (§2) The compounds of the invention are tested for pre- and post-emergence herbicidal activity.
(§3) Each pot is examined three weeks after treatment and phytotoxicity is assessed according to the rating system set forth below.
(§4) These acetone solutions are diluted with water and the resulting formulations applied at dosage levels equivalent of about 0.4 to 0.1 kg per hectare of test compound per pot. After spraying the plants are placed on greenhouse benches and are cared for in the usual manner, commensurate with conventional greenhouse practices.

[6] = test system: Hordeum vulgare; experiment: Post-emergence herbicidal evaluation, HORVW
[7] = test system: Zea mays; experiment: Post-emergence herbicidal evaluation, ZEAMX
[8] = test system: Triticum aestivum; experiment: Pre-emergence herbicidal evaluation, TRZAW; type: in vivo
From the text: as §1

[9] = test system: Alopecurus myosuroides; experiment: Pre-emergence herbicidal evaluation, ALOMY; type: in vivo
From the text: as §1

[10] = test system: Galium aparine; experiment: Post-emergence herbicidal evaluation, GALAP
Description: as §2, §3, §4

[11] = test system: Lolium perenne; experiment: Post-emergence herbicidal evaluation, LOLPE
Description: as §3, §4

[12] = test system: Alopecurus myosuroides; experiment: Post-emergence herbicidal evaluation, ALOMY
[13] = test system: Oryza sativum; experiment: Pre-emergence herbicidal evaluation, ORYSA; type: in vivo
From the text: as §1

[14] = test system: Glycine max; experiment: Pre-emergence herbicidal evaluation, GLXMA; type: in vivo
From the text: as §1

[15] = test system: Echinochloa crus-galli; experiment: Post-emergence herbicidal evaluation, ECHCG
[16] = test system: Apera spica venti; experiment: Post-emergence herbicidal evaluation, APESV
[17] = test system: Glycine max; experiment: Post-emergence herbicidal evaluation, GLXMA
[18] = test system: Setaria viridis; experiment: Pre-emergence herbicidal evaluation, SETVI; type: in vivo
From the text: as §1

[19] = test system: Lolium perenne; experiment: Pre-emergence herbicidal evaluation, LOLPE; type: in vivo
From the text: as §1

[20] = test system: Triticum aestivum; experiment: Post-emergence herbicidal evaluation, TRZAW
[21] = test system: Amaranthus tuberculatus; experiment: Post-emergence herbicidal evaluation, AMATA; type: in vivo
[22] = test system: Echinochloa crus-galli; experiment: Pre-emergence herbicidal evaluation, ECHCG; type: in vivo
From the text: as §1

[23] = test system: Hordeum vulgare; experiment: Pre-emergence herbicidal evaluation, HORVW; type: in vivo
From the text: as §1

## CCc1nnc(OCC(=O)N(C2=CC(C)(C)CC(C)=C2)C(C)C)s1 [Example 11]
[1]; 0.100 kg/ha
  phytotoxicity rating ZEAMX: 0 (0 - No effect)
[1]; 0.200 kg/ha
  phytotoxicity rating ZEAMX: 0 (0 - No effect)
[1]; 0.400 kg/ha
  phytotoxicity rating ZEAMX: 0 (0 - No effect)
[1]; 0.800 kg/ha
  phytotoxicity rating ZEAMX: 7 (7 - Good herbicidal effect)
[2]; 0.100 kg/ha
  phytotoxicity rating ORYSA: 0 (0 - No effect)
[2]; 0.200 kg/ha
  phytotoxicity rating ORYSA: 0 (0 - No effect)
[2]; 0.400 kg/ha
  phytotoxicity rating ORYSA: 2 (2 - Slight effect)
[3]; 0.100 kg/ha
  phytotoxicity rating AMATA: 0 (0 - No effect)
[3]; 0.200 kg/ha
  phytotoxicity rating AMATA: 0 (0 - No effect)
[3]; 0.400 kg/ha
  phytotoxicity rating AMATA: 0 (0 - No effect)
[3]; 0.800 kg/ha
  phytotoxicity rating AMATA: 4 (4 - Injury)
[4]; 0.100 kg/ha
  phytotoxicity rating APESV: 0 (0 - No effect)
[4]; 0.200 kg/ha
  phytotoxicity rating APESV: 0 (0 - No effect)
[4]; 0.400 kg/ha
  phytotoxicity rating APESV: 5 (5 - Definite injury)
[4]; 0.800 kg/ha
  phytotoxicity rating APESV: 5 (5 - Definite injury)
[5]; 0.100 kg/ha
  phytotoxicity rating SETVI: 0 (0 - No effect)
[5]; 0.200 kg/ha
  phytotoxicity rating SETVI: 0 (0 - No effect)
[5]; 0.400 kg/ha
  phytotoxicity rating SETVI: 0 (0 - No effect)
[6]; 0.100 kg/ha
  phytotoxicity rating HORVW: 0 (0 - No effect)
[6]; 0.200 kg/ha
  phytotoxicity rating HORVW: 0 (0 - No effect)
[6]; 0.400 kg/ha
  phytotoxicity rating HORVW: 1 (1 - Trace effect)
[7]; 0.100 kg/ha
  phytotoxicity rating ZEAMX: 0 (0 - No effect)
[7]; 0.200 kg/ha
  phytotoxicity rating ZEAMX: 1 (1 - Trace effect)
[7]; 0.400 kg/ha
  phytotoxicity rating ZEAMX: 4 (4 - Injury)
[8]; 0.100 kg/ha
  phytotoxicity rating TRZAW: 0 (0 - No effect)
[8]; 0.200 kg/ha
  phytotoxicity rating TRZAW: 0 (0 - No effect)
[8]; 0.400 kg/ha
  phytotoxicity rating TRZAW: 2 (2 - Slight effect)
[8]; 0.800 kg/ha
  phytotoxicity rating TRZAW: 3 (3 - Moderate effect)
[9]; 0.100 kg/ha
  phytotoxicity rating ALOMY: 7 (7 - Good herbicidal effect)
[9]; 0.200 kg/ha
  phytotoxicity rating ALOMY: 8 (8 - Approaching complete kill)
[9]; 0.400 kg/ha
  phytotoxicity rating ALOMY: 8 (8 - Approaching complete kill)
[9]; 0.800 kg/ha
  phytotoxicity rating ALOMY: 9 (9 - Complete kill)
[10]; 0.100 kg/ha
  phytotoxicity rating GALAP: 0 (0 - No effect)
[10]; 0.200 kg/ha
  phytotoxicity rating GALAP: 0 (0 - No effect)
[10]; 0.400 kg/ha
  phytotoxicity rating GALAP: 0 (0 - No effect)
[11]; 0.100 kg/ha
  phytotoxicity rating LOLPE: 3 (3 - Moderate effect)
[11]; 0.200 kg/ha
  phytotoxicity rating LOLPE: 5 (5 - Definite injury)
[11]; 0.400 kg/ha
  phytotoxicity rating LOLPE: 8 (8 - Approaching complete kill)
[12]; 0.100 kg/ha
  phytotoxicity rating ALOMY: 1 (1 - Trace effect)
[12]; 0.200 kg/ha
  phytotoxicity rating ALOMY: 7 (7 - Good herbicidal effect)
[12]; 0.400 kg/ha
  phytotoxicity rating ALOMY: 8 (8 - Approaching complete kill)
[13]; 0.100 kg/ha
  phytotoxicity rating ORYSA: 0 (0 - No effect)
[13]; 0.200 kg/ha
  phytotoxicity rating ORYSA: 1 (1 - Trace effect)
[13]; 0.400 kg/ha
  phytotoxicity rating ORYSA: 4 (4 - Injury)
[13]; 0.800 kg/ha
  phytotoxicity rating ORYSA: 6 (6 - Herbicidal effect)
[14]; 0.100 kg/ha
  phytotoxicity rating GLXMA: 0 (0 - No effect)
[14]; 0.200 kg/ha
  phytotoxicity rating GLXMA: 0 (0 - No effect)
[14]; 0.400 kg/ha
  phytotoxicity rating GLXMA: 0 (0 - No effect)
[14]; 0.800 kg/ha
  phytotoxicity rating GLXMA: 0 (0 - No effect)
[15]; 0.100 kg/ha
  phytotoxicity rating ECHCG: 0 (0 - No effect)
[15]; 0.200 kg/ha
  phytotoxicity rating ECHCG: 2 (2 - Slight effect)
[15]; 0.400 kg/ha
  phytotoxicity rating ECHCG: 3 (3 - Moderate effect)
[16]; 0.100 kg/ha
  phytotoxicity rating APESV: 0 (0 - No effect)
[16]; 0.200 kg/ha
  phytotoxicity rating APESV: 7 (7 - Good herbicidal effect)
[16]; 0.400 kg/ha
  phytotoxicity rating APESV: 5 (5 - Definite injury)
[17]; 0.100 kg/ha
  phytotoxicity rating GLXMA: 3 (3 - Moderate effect)
[17]; 0.200 kg/ha
  phytotoxicity rating GLXMA: 5 (5 - Definite injury)
[17]; 0.400 kg/ha
  phytotoxicity rating GLXMA: 5 (5 - Definite injury)
[18]; 0.100 kg/ha
  phytotoxicity rating SETVI: 6 (6 - Herbicidal effect)
[18]; 0.200 kg/ha
  phytotoxicity rating SETVI: 8 (8 - Approaching complete kill)
[18]; 0.400 kg/ha
  phytotoxicity rating SETVI: 8 (8 - Approaching complete kill)
[18]; 0.800 kg/ha
  phytotoxicity rating SETVI: 9 (9 - Complete kill)
[19]; 0.100 kg/ha
  phytotoxicity rating LOLPE: 4 (4 - Injury)
[19]; 0.200 kg/ha
  phytotoxicity rating LOLPE: 5 (5 - Definite injury)
[19]; 0.400 kg/ha
  phytotoxicity rating LOLPE: 8 (8 - Approaching complete kill)
[19]; 0.800 kg/ha
  phytotoxicity rating LOLPE: 9 (9 - Complete kill)
[20]; 0.100 kg/ha
  phytotoxicity rating TRZAW: 0 (0 - No effect)
[20]; 0.200 kg/ha
  phytotoxicity rating TRZAW: 0 (0 - No effect)
[20]; 0.400 kg/ha
  phytotoxicity rating TRZAW: 1 (1 - Trace effect)
[21]; 0.100 kg/ha
  phytotoxicity rating AMATA: 0 (0 - No effect)
[21]; 0.200 kg/ha
  phytotoxicity rating AMATA: 3 (3 - Moderate effect)
[21]; 0.400 kg/ha
  phytotoxicity rating AMATA: 4 (4 - Injury)
[22]; 0.100 kg/ha
  phytotoxicity rating ECHCG: 7 (7 - Good herbicidal effect)
[22]; 0.200 kg/ha
  phytotoxicity rating ECHCG: 7 (7 - Good herbicidal effect)
[22]; 0.400 kg/ha
  phytotoxicity rating ECHCG: 9 (9 - Complete kill)
[22]; 0.800 kg/ha
  phytotoxicity rating ECHCG: 9 (9 - Complete kill)
[23]; 0.100 kg/ha
  phytotoxicity rating HORVW: 0 (0 - No effect)
[23]; 0.200 kg/ha
  phytotoxicity rating HORVW: 0 (0 - No effect)
[23]; 0.400 kg/ha
  phytotoxicity rating HORVW: 1 (1 - Trace effect)
[23]; 0.800 kg/ha
  phytotoxicity rating HORVW: 4 (4 - Injury)
